Experimental data taken from patent US20240368183A1, “Macrocyclic Compounds Having ENT1 Inhibiting Activity” (iTeos Belgium SA, priority 2021, published 2024).
Read-outs that look alike come from different tables or passages of the source.

Legend:
[1] = tested on: stimulated primary human T cells; test: T cell proliferation assay (rescue of proliferation in the presence of ATP); type: cell-based
Method: The aim of this study was to determine the potency of equilibrative nucleoside transporter 1 (ENT1) inhibitors to rescue proliferation by stimulated primary human T cells incubated in the presence of 100 uM Adenosine triphosphate (ATP), in baseline conditions (condition A) or in the presence of various proteins known to bind small molecules (condition B)
Condition B: X-VIVO15, 2% Human Serum Albumine (HSA) and 0.1% α-1-Acid Glycoprotein (AAG)
Cryopreserved purified human CD3+ T cells were thawed and washed twice with RPMI1640 medium, UltraGlutamine containing 10% hiFBS.
Cells were suspended in PBS containing 10% hiFBS. Cells were stained with CFSE by adding 2 μM solution in PBS, to get a final 1 μM CFSE solution. Cells were incubated while rotating for 5 minutes. Reaction was stopped by adding PBS with 10% FBS and cells were centrifuged for 5 minutes at 1500 rpm.
Cells were resuspended at 1.6×10^6 cells/mL, either in X-VIVO15 medium or in 4% Human Serum Albumin and 0.2% α-1-Acid Glycoprotein. 50 μL of cell suspension (8×10^4 T cells) was added to wells of sterile round-bottom 96-well plates. Cells were activated by adding 50 μL of anti-CD3 anti-CD28 coated microbeads, suspended either in XVIVO-15 medium or in 4% HSA and 0.2% α-1-Acid Glycoprotein, at a ratio of one microbead per two cells.
Serial dilutions of the ENT1 inhibitors were prepared in X-VIVO15 from 10 mM stock solutions in DMSO, and 50 μL was added to the wells.
ATP powder was diluted in X-VIVO15, and 50 μL of this compound was added to the wells to reach a final assay concentration of 100 μM. Final volume of 200 μL.
The experiments were also performed in 384 well plates—all volumes reduced by a factor of 4 (12.5 μL) with a final volume of 50 μL.
Experiments were performed in duplicate. The cells were placed in a 37° C. humidified tissue culture incubator with 5% CO2 for 72 hours for 96 well plates, 96 hours for 384 well plates After 72 or 96 hours, proliferation was measured determined by CFSE dilution via flow cytometry.

[2] = target: T1, human ENT1 (Homo sapiens, UniProt Q99808); test: ENT1 binding assay (competition with Sahenta-DY647); settings: JAR cells expressing ENT1; competition with Sahenta-DY647 (100 nM); 4° C.
T1 construct: JAR cells expressing ENT1 were bought from ATCC® (HTB-144TM); host or cells: JAR cells (human choriocarcinoma line, own knowledge)
T1 sequence (Q99808 1-456): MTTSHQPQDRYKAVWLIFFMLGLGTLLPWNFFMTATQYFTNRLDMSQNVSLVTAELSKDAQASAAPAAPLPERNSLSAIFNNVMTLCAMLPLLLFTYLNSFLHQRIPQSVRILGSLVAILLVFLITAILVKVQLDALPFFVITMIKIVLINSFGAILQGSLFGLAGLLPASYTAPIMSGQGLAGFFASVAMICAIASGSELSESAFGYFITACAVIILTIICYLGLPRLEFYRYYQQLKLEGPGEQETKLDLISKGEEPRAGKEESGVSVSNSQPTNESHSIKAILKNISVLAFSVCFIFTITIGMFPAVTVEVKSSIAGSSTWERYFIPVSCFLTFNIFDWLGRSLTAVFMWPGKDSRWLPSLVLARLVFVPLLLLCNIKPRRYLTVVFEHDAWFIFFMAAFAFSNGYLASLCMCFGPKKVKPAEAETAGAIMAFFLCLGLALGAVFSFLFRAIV
Method: The present assay aims at showing that the compounds of the present disclosure can bind to human ENT1. The principle of the assay is a competition between the compounds of this present disclosure and Sahenta-DY647, an ENT1 inhibitor that emits fluorescence (Ex=630 nm, Em=670 nm). By measuring the fluorescence at the end of the assay we could assess the binding potency of the compounds of the present disclosure.
JAR cells expressing ENT1 were bought from ATCC® (HTB-144TM). Cells were cultured in RPMI 1640 medium (LONZA®, #BE12-702F/U1) supplemented with 10% FBS (GIBCO®, #10270-106), 10 mM Hepes (LONZA®, #BE17-737E), 1 mM Sodium Pyruvate (LONZA®, #BE13-115E) and 2% Penicillin/Streptomycin (LONZA®, #DE17-603E) at 37° C. and 5% CO2. The assay was conducted on the following buffer: HBSS (LONZA®, #LO-527F) supplemented with 10 mM Hepes (LONZA®, #BE17-737E) and 0.1% BSA (Miltenyi®, #130-091-376) on the day of the assay.
JAR cells were resuspended in the described buffer. Compounds of the present disclosure and Sahenta-DY647 were diluted 200× in the described buffer.
A total of 50 000 cells were pre-incubated for 30 min at 4° C. with the compounds of the present disclosure before adding the corresponded IC90 of Sahenta-DY647 (100 nM) and incubate once more for 30 min at 4° C. The total volume of the reaction was 100 μL (50 μL of cells, 25 μL of the compounds of the present disclosure and 25 μL of Sahenta-DY647) in a 96 well plate, U-bottom (Greiner®, #650-180). The plates were washed 2× by centrifugation (4 min, 400 rcf at 4° C.) in the same buffer. Cells were re-suspended in 70 μL of the buffer and 50 μL was transferred to a Black 384 Optiplate (PerkinElmer®, #6007279). Fluorescence (Ex=630 nm, Em=670 nm) was acquired on a Spectramax i3x (Molecular Devices®).

[3] = Condition B: X-VIVO15, 2% Human Serum Albumine (HSA) and 0.1% α-1-Acid Glycoprotein (AAG), 100 μM ATP, read-out: (2) T Cell proliferation (Condition B) IC50
[4] = Homo sapiens, Condition A: X-VIVO15, 100 μM ATP, read-out: T Cell proliferation (Condition A) IC50

Row | Compound | IC50 [1, 3] [nM] | IC50 [1, 4] [nM] | IC50 [2] [nM]
1 | COc1cc(C(=O)OC2CCCOc3cc(cc(OC)c3OC)COCCOCCN(C)CC2)cc(OC)c1OC (stereo not drawn) [Compound 43] | 20 to 500 | < 1 | 1 to 20
2 | COc1cc(C(=O)OC2CCCOc3cc(cc(OC)c3OC)COCCN3CCCN(CC2)CC3)cc(OC)c1OC (stereo not drawn) [Compound 44] | 20 to 500 | < 0.1 | 1 to 20
3 | COc1cc2cc(c1OC)OCCCC(n1ncc(-c3ccccc3)n1)CCN1CCCN(CCCOC2=O)CC1 (stereo not drawn) [Compound 28] | 20 to 500 | < 1 | 1 to 20
4 | COc1cc(C(=O)OC2CCCOc3cc(cc(Cl)c3Cl)C(=O)NCCCN3CCCN(CC2)CC3)cc(OC)c1OC (stereo not drawn) [Compound 33] | > 500 | 1 to 20 | 20 to 500
5 | COc1cc2cc(c1OC)OCCCC(OC(=O)c1cnn(C)c1)CCN1CCCN(CCCOC2=O)CC1 (stereo not drawn) [Compound 9] | 1 to 20 | < 0.1 | 1 to 20
6 | COc1cc2cc(c1OC)OCCCC(OCc1ccccc1)CCN1CCCN(CCCOC2=O)CC1 (stereo not drawn) [Compound 35] |  |  | 500 to 1000
7 | COc1ccc(C(=O)OC2CCCOc3cc(cc(OC)c3OC)C(=O)OCCCN3CCCN(CC2)CC3)cc1OC (stereo not drawn) [Compound 16] | 1 to 20 | < 0.1 | 1 to 20
8 | COc1cc(C(=O)OC2CCCOc3cc(cc(OC)c3OC)CCCCS(=O)(=O)N3CCCN(CC2)CC3)cc(OC)c1OC (stereo not drawn) [Compound 47] | 1 to 20 | < 1 | 1 to 20
9 | [2H]C([2H])([2H])Oc1cc(C(=O)O[C@@H]2CCCOc3cc(cc(OC)c3OC)C(=O)NCCCN3CCCN(CC2)CC3)cc(OC([2H])([2H])[2H])c1OC([2H])([2H])[2H] [Compound 17] | 1 to 20 | < 0.1 | 1 to 20
10 | COc1cc(C(=O)OC2CCCOc3cc(cc(OC)c3OC)-c3cn(nn3)CCCN3CCCN(CC2)CC3)cc(OC)c1OC (stereo not drawn) [Compound 37] | 20 to 500 | < 1 | 1 to 20
11 | COc1ccc(C(=O)OC2CCCOc3cc(cc(OC)c3OC)C(=O)OCCCN3CCCN(CC2)CC3)cc1 (stereo not drawn) [Compound 13] |  |  | 1 to 20
12 | COc1cc2cc(c1OC)OCCCC(OC(=O)c1cn(C)nn1)CCN1CCCN(CCCOC2=O)CC1 (stereo not drawn) [Compound 8] |  |  | 1 to 20
13 | COc1cc(C(=O)OC2CCCOc3cc(cc(OC)c3OC)CCCCCN3CCCN(CC2)CC3)cc(OC)c1OC (stereo not drawn) [Compound 45] |  |  | 1 to 20
14 | COc1cc2cc(c1OC)OCCCC(OC(=O)NCC(=O)N1CCOCC1)CCN1CCCN(CCCNC2=O)CC1 (stereo not drawn) [Compound 40] | 20 to 500 | 20 to 500 | 20 to 500
15 | COc1cc2cc(c1OC)OCCCC(Oc1nncc3ccccc13)CCN1CCCN(CCCOC2=O)CC1 (stereo not drawn) [Compound 24] | 20 to 500 | < 0.1 | 1 to 20
16 | COc1cc(C(=O)OC2CCCOc3cc(cc(OC)c3OC)COCCC3CCN(CC3)CC2)cc(OC)c1OC (stereo not drawn) [Compound 42] | 20 to 500 | < 1 | 1 to 20
17 | Cn1nnc2cc(C(=O)OC3CCCOc4cc(cc(Cl)c4Cl)C(=O)NCCCN4CCCN(CC3)CC4)ccc21 (stereo not drawn) [Compound 34] |  |  | 500 to 1000

Row | Compound | IC50 [1, 3] [nM] | IC50 [1, 4] [nM] | IC50 [2] [nM]
18 | COc1cc2cc(c1OC)OCCCC(OC(=O)N1CCCCC1)CCN1CCCN(CCCOC2=O)CC1 (stereo not drawn) [Compound 27] |  |  | 1 to 20
19 | COc1cc2cc(c1OC)OCCCC(Oc1ncccn1)CCN1CCCN(CCCOC2=O)CC1 (stereo not drawn) [Compound 22] |  |  | 20 to 500
20 | COc1cc2cc(c1OC)OCCCC(n1cc(-c3ccccc3)cn1)CCN1CCCN(CCCOC2=O)CC1 (stereo not drawn) [Compound 29] | 20 to 500 | < 1 | 1 to 20
21 | COc1cc2cc(c1OC)OCCCCCCN1CCCN(CCCOC2=O)CC1 [Compound 32] |  |  | 500 to 1000
22 | COc1cc(C(=O)O[C@H]2CCCOc3cc(cc(OC)c3OC)COCCCN3CCCN(CC2)CC3)cc(OC)c1OC (single isomer, unassigned) [Compound 5] |  |  | 20 to 500
23 | COc1cccc(C(=O)OC2CCCOc3cc(cc(OC)c3OC)C(=O)OCCCN3CCCN(CC2)CC3)c1 (stereo not drawn) [Compound 14] |  |  | 1 to 20
24 | COc1cc2cc(c1OC)OCCCC(Oc1ccn(C)n1)CCN1CCCN(CCCOC2=O)CC1 (stereo not drawn) [Compound 25] |  |  | 500 to 1000
25 | COc1cc(C(=O)OC2CCCOc3cc(cc(OC)c3OC)C(=O)NCCC(=O)N3CCN(CC2)CC3)cc(OC)c1OC (stereo not drawn) [Compound 31] |  |  | 20 to 500
26 | COc1cc(C(=O)O[C@H]2CCOc3cc(cc(OC)c3OC)C(=O)NCCCN3CCCN(CC2)CC3)cc(OC)c1OC (stereo in doubt) [Compound 38] |  |  | 500 to 1000
27 | COc1cc(C(=O)OCCCN2CCCN(CCCOC(=O)c3cc(OC)c(OC)c(OC)c3)CC2)cc(OC)c1OC [Dilazep, dilazep, reference compound] | 20 to 500 | 1 to 20 | 
28 | COc1cc2cc(c1OC)OCCCC(OC(=O)N1CCOCC1)CCN1CCCN(CCCOC2=O)CC1 (stereo not drawn) [Compound 26] |  |  | 1 to 20
29 | COc1cc2cc(c1OC)OCCCC(OC(=O)c1cnnn1C)CCN1CCCN(CCCOC2=O)CC1 (stereo not drawn) [Compound 7] |  |  | 1 to 20
30 | COc1cc2cc(c1OC)OCCCC(O/N=C/c1ccccc1)CCN1CCCN(CCCOC2)CC1 (stereo not drawn) [Compound 1] |  |  | 20 to 500
31 | COc1cc(C(=O)OC2CCCOc3cc(cc(OC)c3OC)C#CCCS(=O)(=O)N3CCCN(CC2)CC3)cc(OC)c1OC (stereo not drawn) [Compound 46] |  |  | 20 to 500
32 | COc1cc(C(=O)OC2CCCOc3cccc(c3)-c3cn(nn3)CCCN3CCCN(CC2)CC3)cc(OC)c1OC (stereo not drawn) [Compound 36] |  |  | 20 to 500
33 | COc1cc(C(=O)O[C@@H]2CCOc3cc(cc(OC)c3OC)C(=O)NCCCN3CCCN(CC2)CC3)cc(OC)c1OC [Compound 39] |  |  | 20 to 500
